{"source": "paper PMC4230943", "about": "“Mimicking Hypoxia to Treat Anemia: HIF-Stabilizer BAY 85-3934 (Molidustat) Stimulates Erythropoietin Production without Hypertensive Effects” (PLoS ONE, 2014)", "key": {"HIF-1α and HIF-2α": {"test_system": "HIF-1α and HIF-2α", "experiment": "Western blot detection of HIF stabilization in HeLa, A549 and Hep3B cells", "format": "cell-based, human", "settings": "for induction threshold of detectable HIF: 2 h exposure", "description": "A549 and HeLa carcinoma cell lines (American Type Culture Collection) were cultured in DMEM/F-12 (Gibco), and Hep3B cells in RPMI medium, both supplemented with antibiotics, L-glutamine and 10% fetal calf serum. A549 cells stably transfected with the HIF-RE2-luc HIF reporter construct (constructed in pGL3, Promega GmbH) were seeded on 384-well plates (Greiner) at a density of 2500 cells/well in a volume of 25 µl complete cell culture medium, and re-incubated for 16–24 h before the test. Test compounds were added at appropriate dilutions in a volume of 10 µl, and cells were re-incubated for 6 h before measurement. Luciferase activity was determined in a luminometer after addition of cell lysis/luciferase buffer. Cell line identities were verified by STR DNA typing (DSMZ GmbH).\nFor western blot analysis, cell lysates were separated on 4–12% SDS polyacrylamide gradient gels (Invitrogen). Proteins were blotted onto polyvinylidene difluoride (PVDF) membranes (Amersham Biosciences). HIF-1α protein was detected using a HIF-1α specific monoclonal antibody (BD Transduction Laboratories) at a dilution of 1∶250. HIF-2α protein was detected using a HIF-2α specific polyclonal antibody (Novus Biologicals) at a dilution of 1∶1000. Anti-β-actin antibody served as a loading control. […] Novex Sharp Pre-stained Protein Standard (Invitrogen) was used as molecular weight marker.\nIt was further explored whether inhibition of HIF-PHs would result in the stabilization of HIFs. Exposure of three different human cell lines (HeLa, A549, and Hep3B) to concentrations of BAY 85-3934 up to 10 µM for 2 h led to dose-dependent increases in both HIF-1α and HIF-2α. Within the individual cell lines, there was no difference between the HIF isoforms with regard to the threshold concentration of BAY 85-3934 that was necessary for the induction of detectable amounts of HIF. […] Exposure of HeLa cells to 5 µM BAY 85-3934 for 20 min was sufficient to induce detectable concentrations of HIF-1α (Fig. 1E). After exposure of A549 cells to 20 µM BAY 85-3934 for 120 min, with subsequent withdrawal of the culture medium and replacement with medium containing 100 µM cycloheximide (an inhibitor of protein synthesis), induction of HIF-1α was no longer detectable after 30 min (Fig. 1F). Therefore, it can be ruled out that disappearance of HIF-1α was the result of de novo synthesis of […]."}, "female Lewis rats": {"test_system": "female Lewis rats", "experiment": "PG-PS-induced inflammatory anemia model", "format": "in vivo, rat", "description": "Female Lewis rats (Harlan Laboratories), with a body weight of 155–181 g were used. Body weight, ankle diameter, hematocrit, and blood cell count were determined at baseline and thereafter at regular intervals. PG-PS from Streptococcus pyogenes (Becton Dickinson) was dissolved in sterile saline and administered via i.p. injection at 15 mg/kg. […] Two weeks after injection, animals were distributed into treatment groups in equal proportions based on their hematocrit levels. On day 15, BAY 85-3934 was given orally once daily at doses of 2.5 mg/kg and 5.0 mg/kg. At the end of the study, animals were sacrificed and kidney and liver samples were processed for qRT-PCR analysis.\nTotal RNA was extracted from shock-frozen cell or tissue samples using the TRIzol method. Integrity of obtained RNA was checked on a Bioanalyzer (Agilent Technologies). For reverse transcription, 1 µg of total RNA was digested with RNase-free DNase I (Gibco) for 15 min at room temperature, and then reverse-transcribed using Promiscript (Promega GmbH) in a total reaction volume of 40 µl according to the standard protocol of the supplier. After inactivation of the enzyme by heating to 65°C for 15 min, the obtained cDNA was diluted to a final volume of 150 µl with double-distilled water, and 4 µl used per PCR reaction. qRT-PCR, including normalization of raw data to cytosolic β-actin, was carried out as described previously. The resulting expression is given in arbitrary units.\nRenal anemia, particularly in patients with ESRD on dialysis, is often associated with systemic inflammation and EPO resistance. The potential for BAY 85-3934 to reverse anemia was evaluated in a rodent model of protracted inflammatory anemia associated with chronic polyarthritis, induced by challenge with PG-PS [38]. The severity of the inflammatory response after PG-PS challenge was underscored by the finding that there was elevated expression of a panel of cytokines and inflammatory marker genes, several of which are known to disturb iron utilization (interleukin-1, interleukin-6, tumor necrosis factor-α, and hepcidin) and to impair proliferation and differentiation of erythroid precursors (interleukin-1 and tumor necrosis factor-α)."}}, "data": [{"molecule": "O=c1c(-n2ccnn2)c[nH]n1-c1cc(N2CCOCC2)ncn1", "note": "[BAY 85-3934, 2-[6-(morpholin-4-yl)pyrimidin-4-yl]-4-(1H-1,2,3-triazol-1-yl)-1,2-dihydro-3H-pyrazol-3-one]", "values": [{"measurement": "induction threshold of detectable HIF", "setting": "HIF-1α and HIF-2α; A549 cells", "value": 2.5, "unit": "µM"}, {"measurement": "induction threshold of detectable HIF", "setting": "HIF-1α and HIF-2α; HeLa cells", "value": 0.25, "unit": "µM"}, {"measurement": "induction threshold of detectable HIF", "setting": "HIF-1α and HIF-2α; Hep3B cells", "value": 0.5, "unit": "µM"}, {"measurement": "induction threshold of HIF (summary in discussion)", "setting": "HIF-1α and HIF-2α; human cell lines", "value": "below 1 µM"}, {"measurement": "mean PCV", "setting": "female Lewis rats; 2.5 mg/kg once daily oral", "value": "halted further decline"}, {"measurement": "expression levels of monocyte chemotactic protein-1 and hepcidin", "setting": "female Lewis rats; 5 mg/kg dose group", "value": "significantly reduced"}, {"measurement": "mean PCV", "setting": "female Lewis rats; 5 mg/kg once daily oral", "value": "reversed mean PCV decline"}, {"measurement": "time after PG-PS challenge for PCV to return to normal levels", "setting": "female Lewis rats; 5 mg/kg once daily oral", "value": "≤ 5", "unit": "weeks"}, {"measurement": "initial increase in white blood cell count", "setting": "female Lewis rats; data not shown", "value": "attenuated"}, {"measurement": "kidney EPO mRNA expression", "setting": "female Lewis rats; end of study", "value": "significantly larger increase"}, {"measurement": "course of polyarthritis (hind limb ankle diameter, body weight gain)", "setting": "female Lewis rats; rat, in vivo", "value": "did not influence"}]}]}
